Reference: the kinase profiling compilation of Christmann-Franck et al. (2016)

How the values were obtained:
Assay in all cases: radiometric filter-binding kinase assay, Kinase HotSpot
Settings in all cases: compound 0.5 µM; ATP 10 µM
[1] = biological target: DYRK1B (human) (UniProt Q9Y463)
[2] = biological target: MAPKAPK2 (human) (UniProt P49137)
[3] = biological target: CAMK2A (human) (UniProt Q9UQM7)
[4] = biological target: GRK5 (human) (UniProt P34947)
[5] = biological target: ABL2 (human) (UniProt P42684)
[6] = biological target: PAK2 (human) (UniProt Q13177)
[7] = biological target: BTK (human) (UniProt Q06187)
Chain of BTK (human) (Q06187 whole entry, looked up): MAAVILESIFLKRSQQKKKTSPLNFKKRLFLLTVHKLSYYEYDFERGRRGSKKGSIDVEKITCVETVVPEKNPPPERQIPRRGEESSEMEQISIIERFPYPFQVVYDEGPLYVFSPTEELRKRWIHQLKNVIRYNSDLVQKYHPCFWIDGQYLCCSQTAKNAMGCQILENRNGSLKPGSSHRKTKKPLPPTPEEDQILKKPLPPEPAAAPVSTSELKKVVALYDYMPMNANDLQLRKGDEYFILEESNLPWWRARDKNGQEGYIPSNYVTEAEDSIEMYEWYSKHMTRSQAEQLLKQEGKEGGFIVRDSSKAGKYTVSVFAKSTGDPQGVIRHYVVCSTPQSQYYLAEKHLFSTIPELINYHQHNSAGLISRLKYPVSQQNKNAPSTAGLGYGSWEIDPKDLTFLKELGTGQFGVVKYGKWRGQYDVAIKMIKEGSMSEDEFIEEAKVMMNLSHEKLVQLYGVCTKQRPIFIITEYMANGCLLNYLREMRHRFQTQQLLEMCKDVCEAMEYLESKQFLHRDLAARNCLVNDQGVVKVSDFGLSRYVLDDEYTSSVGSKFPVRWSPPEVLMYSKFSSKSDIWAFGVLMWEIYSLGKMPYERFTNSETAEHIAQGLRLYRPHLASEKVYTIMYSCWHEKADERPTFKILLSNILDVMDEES

[8] = biological target: JAK2 JH1 JH2 (human) (UniProt O60674)
[9] = biological target: TEK (human) (UniProt Q02763)
[10] = biological target: PBK (human) (UniProt Q96KB5)
Chain of PBK (human) (Q96KB5 whole entry, looked up): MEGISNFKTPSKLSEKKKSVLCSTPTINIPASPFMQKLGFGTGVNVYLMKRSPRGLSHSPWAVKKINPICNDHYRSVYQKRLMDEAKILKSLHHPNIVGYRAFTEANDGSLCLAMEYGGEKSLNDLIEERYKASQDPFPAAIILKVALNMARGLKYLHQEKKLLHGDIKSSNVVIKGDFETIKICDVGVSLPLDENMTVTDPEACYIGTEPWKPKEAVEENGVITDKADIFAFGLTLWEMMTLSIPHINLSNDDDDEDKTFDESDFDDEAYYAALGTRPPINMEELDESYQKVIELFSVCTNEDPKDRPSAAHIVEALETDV

[11] = biological target: NEK4 (human) (UniProt P51957)
[12] = biological target: CDK5 CDK5R1 p25 (human) (UniProt Q00535+Q15078)
[13] = biological target: KDR (human) (UniProt P35968)
[14] = biological target: NTRK3 (human) (UniProt Q16288)
[15] = biological target: CDK6 CCND3 (human) (UniProt P30281+Q00534)
[16] = biological target: CDC42BPB (human) (UniProt Q9Y5S2)
Chain of CDC42BPB (human) (Q9Y5S2 whole entry, looked up): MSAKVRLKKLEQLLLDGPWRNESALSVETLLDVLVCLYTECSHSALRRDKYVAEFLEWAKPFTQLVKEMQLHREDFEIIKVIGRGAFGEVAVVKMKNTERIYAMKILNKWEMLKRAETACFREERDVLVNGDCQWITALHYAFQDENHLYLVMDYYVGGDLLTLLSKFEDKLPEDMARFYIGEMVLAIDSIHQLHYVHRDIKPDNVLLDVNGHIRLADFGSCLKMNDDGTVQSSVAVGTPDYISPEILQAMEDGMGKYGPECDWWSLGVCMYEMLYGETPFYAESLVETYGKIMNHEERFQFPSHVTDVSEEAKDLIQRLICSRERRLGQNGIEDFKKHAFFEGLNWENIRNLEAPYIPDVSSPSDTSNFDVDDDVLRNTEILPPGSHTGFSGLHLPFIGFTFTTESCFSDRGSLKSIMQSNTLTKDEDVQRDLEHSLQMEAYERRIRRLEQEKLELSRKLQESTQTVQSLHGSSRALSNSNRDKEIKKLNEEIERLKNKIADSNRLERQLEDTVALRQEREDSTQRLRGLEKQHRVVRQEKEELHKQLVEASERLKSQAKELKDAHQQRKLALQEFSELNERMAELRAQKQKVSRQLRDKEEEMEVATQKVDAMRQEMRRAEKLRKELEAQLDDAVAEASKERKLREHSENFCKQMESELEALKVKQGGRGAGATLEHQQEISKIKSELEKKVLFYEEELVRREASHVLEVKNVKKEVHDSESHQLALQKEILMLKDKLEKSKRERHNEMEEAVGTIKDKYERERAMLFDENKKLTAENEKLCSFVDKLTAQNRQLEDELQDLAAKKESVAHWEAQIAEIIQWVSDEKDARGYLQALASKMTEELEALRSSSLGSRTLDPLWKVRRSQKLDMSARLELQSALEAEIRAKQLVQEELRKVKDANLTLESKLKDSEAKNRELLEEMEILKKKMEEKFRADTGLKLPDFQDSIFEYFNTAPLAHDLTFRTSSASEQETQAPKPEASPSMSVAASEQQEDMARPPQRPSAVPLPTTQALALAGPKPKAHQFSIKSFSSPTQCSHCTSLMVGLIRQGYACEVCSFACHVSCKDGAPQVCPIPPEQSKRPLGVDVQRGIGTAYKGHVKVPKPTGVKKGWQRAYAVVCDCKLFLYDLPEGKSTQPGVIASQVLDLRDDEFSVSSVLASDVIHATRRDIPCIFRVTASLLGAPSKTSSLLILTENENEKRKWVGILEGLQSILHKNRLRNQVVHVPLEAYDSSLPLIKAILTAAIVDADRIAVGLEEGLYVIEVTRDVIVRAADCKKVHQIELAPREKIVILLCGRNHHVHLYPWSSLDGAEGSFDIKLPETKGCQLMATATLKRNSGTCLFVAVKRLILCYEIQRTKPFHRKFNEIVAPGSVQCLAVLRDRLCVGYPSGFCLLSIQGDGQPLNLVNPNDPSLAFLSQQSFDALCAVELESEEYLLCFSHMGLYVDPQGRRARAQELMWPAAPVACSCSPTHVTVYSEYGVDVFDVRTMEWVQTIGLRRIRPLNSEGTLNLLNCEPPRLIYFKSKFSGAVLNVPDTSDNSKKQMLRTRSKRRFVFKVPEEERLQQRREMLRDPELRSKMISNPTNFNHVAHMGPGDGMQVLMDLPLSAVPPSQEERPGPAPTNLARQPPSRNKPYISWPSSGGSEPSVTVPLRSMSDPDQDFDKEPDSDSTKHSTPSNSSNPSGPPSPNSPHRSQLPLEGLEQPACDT

[17] = biological target: FLT1 (human) (UniProt P17948)
[18] = biological target: ALK (human) (UniProt Q9UM73)
[19] = biological target: SLK (human) (UniProt Q9H2G2)
[20] = biological target: AURKA (human) (UniProt O14965)
[21] = biological target: IRAK4 (human) (UniProt Q9NWZ3)
[22] = biological target: FGFR3 (human) (UniProt P22607)
[23] = biological target: SRPK1 (human) (UniProt Q96SB4)
[24] = biological target: RPS6KA5 KD2 (human) (UniProt O75582)
[25] = biological target: RPS6KB2 (human) (UniProt Q9UBS0)
[26] = biological target: PNCK (human) (UniProt Q6P2M8)
[27] = biological target: GSK3A (human) (UniProt P49840)
Chain of GSK3A (human) (P49840 whole entry, looked up): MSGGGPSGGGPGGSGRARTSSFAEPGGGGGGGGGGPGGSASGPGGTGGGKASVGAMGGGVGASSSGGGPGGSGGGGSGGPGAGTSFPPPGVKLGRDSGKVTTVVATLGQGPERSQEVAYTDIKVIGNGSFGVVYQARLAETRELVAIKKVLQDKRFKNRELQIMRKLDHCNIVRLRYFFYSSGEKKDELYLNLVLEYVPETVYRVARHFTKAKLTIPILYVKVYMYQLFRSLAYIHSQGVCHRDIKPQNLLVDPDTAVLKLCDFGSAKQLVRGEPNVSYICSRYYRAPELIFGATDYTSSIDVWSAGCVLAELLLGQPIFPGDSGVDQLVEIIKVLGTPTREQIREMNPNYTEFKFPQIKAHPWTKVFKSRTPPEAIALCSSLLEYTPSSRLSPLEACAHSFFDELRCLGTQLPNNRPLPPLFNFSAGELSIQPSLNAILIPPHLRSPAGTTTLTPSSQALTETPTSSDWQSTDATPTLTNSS

[28] = biological target: EPHB2 (human) (UniProt P29323)
[29] = biological target: EPHA8 (human) (UniProt P29322)
[30] = biological target: MAP2K2 (human) (UniProt P36507)
[31] = biological target: PRKCI (human) (UniProt P41743)
[32] = biological target: NEK11 (human) (UniProt Q8NG66)
Chain of NEK11 (human) (Q8NG66 whole entry, looked up): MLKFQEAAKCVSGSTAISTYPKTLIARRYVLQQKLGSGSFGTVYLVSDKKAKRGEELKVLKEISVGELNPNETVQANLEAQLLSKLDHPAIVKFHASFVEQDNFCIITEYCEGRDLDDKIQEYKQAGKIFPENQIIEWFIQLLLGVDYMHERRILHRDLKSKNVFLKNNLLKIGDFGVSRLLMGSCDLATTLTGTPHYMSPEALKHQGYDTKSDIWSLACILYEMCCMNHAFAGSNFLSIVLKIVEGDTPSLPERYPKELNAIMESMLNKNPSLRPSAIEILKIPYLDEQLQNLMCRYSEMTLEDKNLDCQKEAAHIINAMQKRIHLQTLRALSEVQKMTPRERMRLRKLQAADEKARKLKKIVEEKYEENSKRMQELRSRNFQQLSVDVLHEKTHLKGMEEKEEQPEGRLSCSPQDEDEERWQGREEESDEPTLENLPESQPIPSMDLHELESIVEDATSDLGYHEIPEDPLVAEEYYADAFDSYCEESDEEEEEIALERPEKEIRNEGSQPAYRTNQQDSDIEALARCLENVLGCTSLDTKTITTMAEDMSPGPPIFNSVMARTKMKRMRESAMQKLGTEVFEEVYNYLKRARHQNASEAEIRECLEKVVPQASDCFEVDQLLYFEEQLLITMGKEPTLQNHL

[33] = biological target: TYK2 JH1 catalytic (human) (UniProt P29597)
[34] = biological target: AKT1 (human) (UniProt P31749)
[35] = biological target: CDK1 CCNB1 (human) (UniProt P06493+P14635)
[36] = biological target: MAPK11 (human) (UniProt Q15759)
[37] = biological target: FGFR2 (human) (UniProt P21802)
[38] = biological target: DSTYK (human) (UniProt Q6XUX3)
[39] = biological target: PRKG2 (human) (UniProt Q13237)
Chain of PRKG2 (human) (Q13237 whole entry, looked up): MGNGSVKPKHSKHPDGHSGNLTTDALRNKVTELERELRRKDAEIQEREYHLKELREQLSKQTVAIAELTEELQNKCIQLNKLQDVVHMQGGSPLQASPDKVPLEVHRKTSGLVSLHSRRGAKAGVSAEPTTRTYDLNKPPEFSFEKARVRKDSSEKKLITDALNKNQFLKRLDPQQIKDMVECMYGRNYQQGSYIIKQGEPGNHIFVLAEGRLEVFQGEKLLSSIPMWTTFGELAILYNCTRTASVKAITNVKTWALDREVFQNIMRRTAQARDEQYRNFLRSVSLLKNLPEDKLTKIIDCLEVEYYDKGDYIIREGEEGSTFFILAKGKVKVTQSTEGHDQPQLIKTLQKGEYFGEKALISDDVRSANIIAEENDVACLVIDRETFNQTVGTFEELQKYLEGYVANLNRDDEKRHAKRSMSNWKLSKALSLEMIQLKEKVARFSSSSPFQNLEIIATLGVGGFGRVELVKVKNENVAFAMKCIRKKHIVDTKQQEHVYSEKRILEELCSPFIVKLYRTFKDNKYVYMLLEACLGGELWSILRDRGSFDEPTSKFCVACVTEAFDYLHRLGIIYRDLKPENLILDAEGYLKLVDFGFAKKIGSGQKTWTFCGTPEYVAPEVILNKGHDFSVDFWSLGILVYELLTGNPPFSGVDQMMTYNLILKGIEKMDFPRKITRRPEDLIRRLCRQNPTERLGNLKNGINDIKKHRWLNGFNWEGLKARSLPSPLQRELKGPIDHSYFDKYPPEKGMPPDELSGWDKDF

[40] = biological target: STK17A (human) (UniProt Q9UEE5)
[41] = biological target: NEK9 (human) (UniProt Q8TD19)
[42] = biological target: TXK (human) (UniProt P42681)

Chain of CAMK2A (human) (Q9UQM7 whole entry, looked up): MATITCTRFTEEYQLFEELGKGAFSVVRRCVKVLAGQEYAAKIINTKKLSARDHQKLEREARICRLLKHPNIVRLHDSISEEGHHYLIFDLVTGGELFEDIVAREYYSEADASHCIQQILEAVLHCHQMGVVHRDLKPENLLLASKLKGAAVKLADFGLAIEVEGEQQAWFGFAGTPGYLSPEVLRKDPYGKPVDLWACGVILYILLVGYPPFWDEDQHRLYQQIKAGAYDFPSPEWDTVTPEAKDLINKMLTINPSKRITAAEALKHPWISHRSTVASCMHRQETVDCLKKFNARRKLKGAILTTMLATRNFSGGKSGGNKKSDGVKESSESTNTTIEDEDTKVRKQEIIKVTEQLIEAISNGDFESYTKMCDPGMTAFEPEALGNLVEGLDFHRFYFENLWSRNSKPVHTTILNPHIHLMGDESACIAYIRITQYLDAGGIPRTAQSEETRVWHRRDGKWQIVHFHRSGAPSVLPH

Question: What does the source list for `O=C(CCCc1ccc(-c2ccccc2F)cc1)Nc1ccc(O)cc1`?
Answer: residual activity [1]: 108%; residual activity [2]: 103%; residual activity [3]: 116%; residual activity [4]: 98.4%; residual activity [5]: 95.3%; residual activity [6]: 101%; residual activity [7]: 98.2%; residual activity [8]: 98.5%; residual activity [9]: 101%; residual activity [10]: 90.8%; residual activity [11]: 103%; residual activity [12]: 94.6%; residual activity [13]: 101%; residual activity [14]: 96.3%; residual activity [15]: 103%; residual activity [16]: 109%; residual activity [17]: 93.1%; residual activity [18]: 97%; residual activity [19]: 102%; residual activity [20]: 104%; residual activity [21]: 86.3%; residual activity [22]: 103%; residual activity [23]: 98.6%; residual activity [24]: 95.2%; residual activity [25]: 104%; residual activity [26]: 102%; residual activity [27]: 98.6%; residual activity [28]: 98.5%; residual activity [29]: 114%; residual activity [30]: 95.1%; residual activity [31]: 95.5%; residual activity [32]: 100%; residual activity [33]: 96.5%; residual activity [34]: 97.7%; residual activity [35]: 102%; residual activity [36]: 79.7%; residual activity [37]: 102%; residual activity [38]: 103%; residual activity [39]: 102%; residual activity [40]: 101%; residual activity [41]: 92.7%; residual activity [42]: 97.7%

Question: Which results are given for `CC(C)[C@H](CO)Nc1nc(Nc2cc(N)cc(Cl)c2)c2ncn(C(C)C)c2n1`?
Answer: residual activity [1]: 38.3%; residual activity [2]: 92.8%; residual activity [3]: 83.9%; residual activity [4]: 101%; residual activity [5]: 21.3%; residual activity [6]: 95.5%; residual activity [7]: 33%; residual activity [8]: 100%; residual activity [9]: 92.5%; residual activity [10]: 75.6%; residual activity [11]: 80.2%; residual activity [12]: 3.31%; residual activity [13]: 101%; residual activity [14]: 4.42%; residual activity [16]: 98.4%; residual activity [17]: 97.5%; residual activity [18]: 79.6%; residual activity [19]: 39.8%; residual activity [20]: 80.5%; residual activity [21]: 86.8%; residual activity [22]: 79.4%; residual activity [23]: 62.1%; residual activity [24]: 103%; residual activity [25]: 98.2%; residual activity [26]: 132%; residual activity [27]: 101%; residual activity [28]: 73.6%; residual activity [29]: 92.5%; residual activity [30]: 87.5%; residual activity [31]: 89.6%; residual activity [32]: 84.2%; residual activity [33]: 57.9%; residual activity [34]: 117%; residual activity [36]: 96.3%; residual activity [37]: 97.3%; residual activity [38]: 93.1%; residual activity [39]: 88.8%; residual activity [40]: 96.3%; residual activity [41]: 69.4%; residual activity [42]: 42.5%

Question: Which residual activity [2] does the source give for `O=C1Cc2c([nH]c3ccc(Br)cc23)-c2ccccc2N1` here?
Answer: Its residual activity is 101%.

Question: And the residual activity [3]?
Answer: The residual activity was 105%.

Question: And the residual activity [4]?
Answer: The residual activity was 97%.

Question: And the residual activity [5]?
Answer: The residual activity was 84.9%.

Question: And the residual activity [6]?
Answer: Its residual activity is 95.5%.

Question: What about the residual activity [7] of the same compound?
Answer: Its residual activity is 98%.

Question: What about the residual activity [8] of the same compound?
Answer: The residual activity was 102%.

Question: What about the residual activity [9] of the same compound?
Answer: The residual activity was 106%.

Question: What about the residual activity [10] of the same compound?
Answer: Its residual activity is 99.3%.

Question: What about the residual activity [11] of the same compound?
Answer: The residual activity was 98.9%.

Question: And the residual activity [12]?
Answer: The residual activity was 64.8%.

Question: What about the residual activity [13] of the same compound?
Answer: Its residual activity is 98.1%.

Question: And the residual activity [14]?
Answer: The residual activity was 70.7%.

Question: And the residual activity [15]?
Answer: The residual activity was 94.4%.

Question: And the residual activity [16]?
Answer: Its residual activity is 95.9%.

Question: And the residual activity [17]?
Answer: Its residual activity is 78.9%.

Question: And the residual activity [18]?
Answer: The residual activity was 90.8%.

Question: And the residual activity [19]?
Answer: The residual activity was 95.7%.

Question: And the residual activity [20]?
Answer: The residual activity was 99.7%.

Question: What about the residual activity [21] of the same compound?
Answer: The residual activity was 88.3%.

Question: What about the residual activity [22] of the same compound?
Answer: The residual activity was 101%.

Question: What about the residual activity [23] of the same compound?
Answer: Its residual activity is 99.6%.

Question: What about the residual activity [24] of the same compound?
Answer: Its residual activity is 99.6%.

Question: And the residual activity [25]?
Answer: Its residual activity is 99.4%.

Question: And the residual activity [26]?
Answer: Its residual activity is 99.6%.

Question: What about the residual activity [27] of the same compound?
Answer: The residual activity was 5.87%.

Question: What about the residual activity [28] of the same compound?
Answer: The residual activity was 95.5%.

Question: And the residual activity [29]?
Answer: The residual activity was 101%.

Question: What about the residual activity [30] of the same compound?
Answer: The residual activity was 116%.

Question: And the residual activity [31]?
Answer: Its residual activity is 89.1%.

Question: What about the residual activity [32] of the same compound?
Answer: Its residual activity is 107%.

Question: And the residual activity [33]?
Answer: Its residual activity is 81.7%.

Question: What about the residual activity [34] of the same compound?
Answer: Its residual activity is 99.9%.

Question: And the residual activity [35]?
Answer: The residual activity was 80.6%.

Question: What about the residual activity [36] of the same compound?
Answer: The residual activity was 104%.

Question: And the residual activity [37]?
Answer: The residual activity was 100%.

Question: What about the residual activity [38] of the same compound?
Answer: Its residual activity is 98.6%.

Question: What about the residual activity [39] of the same compound?
Answer: The residual activity was 101%.

Question: And the residual activity [40]?
Answer: Its residual activity is 102%.

Question: What about the residual activity [41] of the same compound?
Answer: The residual activity was 94%.

Question: What about the residual activity [42] of the same compound?
Answer: Its residual activity is 82.6%.

Question: With `O=C1NC(=O)C(c2cn(CCCO)c3ncccc23)=C1c1cnccn1` as the compound, how does the residual activity [1] read?
Answer: The residual activity was 93.2%.

Question: What about the residual activity [2] of the same compound?
Answer: The residual activity was 91%.

Question: And the residual activity [3]?
Answer: The residual activity was 108%.

Question: What about the residual activity [4] of the same compound?
Answer: The residual activity was 116%.

Question: And the residual activity [5]?
Answer: The residual activity was 83.7%.

Question: And the residual activity [6]?
Answer: Its residual activity is 105%.

Question: What about the residual activity [7] of the same compound?
Answer: The residual activity was 93.7%.

Question: What about the residual activity [8] of the same compound?
Answer: The residual activity was 97.8%.

Question: And the residual activity [9]?
Answer: The residual activity was 103%.

Question: What about the residual activity [10] of the same compound?
Answer: Its residual activity is 94.9%.

Question: And the residual activity [11]?
Answer: Its residual activity is 85.1%.

Question: What about the residual activity [12] of the same compound?
Answer: Its residual activity is 103%.

Question: What about the residual activity [13] of the same compound?
Answer: The residual activity was 82.1%.

Question: What about the residual activity [14] of the same compound?
Answer: Its residual activity is 79.7%.

Question: And the residual activity [15]?
Answer: The residual activity was 84.4%.

Question: And the residual activity [17]?
Answer: Its residual activity is 89.4%.

Question: What about the residual activity [18] of the same compound?
Answer: Its residual activity is 105%.

Question: And the residual activity [19]?
Answer: Its residual activity is 106%.

Question: And the residual activity [20]?
Answer: Its residual activity is 107%.

Question: What about the residual activity [21] of the same compound?
Answer: The residual activity was 129%.

Question: What about the residual activity [22] of the same compound?
Answer: Its residual activity is 78.7%.

Question: What about the residual activity [23] of the same compound?
Answer: Its residual activity is 98%.

Question: And the residual activity [24]?
Answer: The residual activity was 73.9%.

Question: What about the residual activity [25] of the same compound?
Answer: The residual activity was 94.7%.

Question: What about the residual activity [26] of the same compound?
Answer: Its residual activity is 94.9%.

Question: And the residual activity [27]?
Answer: The residual activity was 8.56%.

Question: What about the residual activity [28] of the same compound?
Answer: The residual activity was 78.3%.

Question: What about the residual activity [29] of the same compound?
Answer: Its residual activity is 86.9%.

Question: And the residual activity [30]?
Answer: Its residual activity is 90.3%.

Question: And the residual activity [31]?
Answer: Its residual activity is 87%.

Question: And the residual activity [32]?
Answer: Its residual activity is 108%.

Question: And the residual activity [33]?
Answer: The residual activity was 96.9%.

Question: What about the residual activity [34] of the same compound?
Answer: Its residual activity is 98.6%.

Question: And the residual activity [35]?
Answer: The residual activity was 81.1%.

Question: And the residual activity [36]?
Answer: The residual activity was 105%.

Question: And the residual activity [37]?
Answer: The residual activity was 103%.

Question: What about the residual activity [38] of the same compound?
Answer: The residual activity was 78%.

Question: What about the residual activity [39] of the same compound?
Answer: Its residual activity is 118%.

Question: And the residual activity [40]?
Answer: Its residual activity is 93.6%.

Question: What about the residual activity [41] of the same compound?
Answer: The residual activity was 93.4%.

Question: What about the residual activity [42] of the same compound?
Answer: Its residual activity is 75.3%.
